These results are taken from patent US20260365682A1, “MODULATORS OF TNF-ALPHA ACTIVITY” (Forward Therapeutics, Inc., priority 2022, published 2026).

This assay has as its target T1, TNF-α (Homo sapiens, UniProt P01375).
T1 construct: purchased R&D 210-TA-020/CF
Kind of assay: TNF-α Induced HEK Blue Cellular Assay (secreted alkaline phosphatase expression, QUANTI-Blue). The class given is cell-based. Particulars: HEK Blue TNFα reporter cells, TNF-α 100 μg/ml, 24 hrs at 37° C., inhibition of secreted alkaline phosphatase. The procedure, abridged: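 HEK Blue TNFα reporter cells (10,000/well) in DMEM with 10% FBS received compound ([…] to 0.5 nM final) and TNF-α at […] final for 24 h at 37° C. Secreted alkaline phosphatase read with QUANTI-Blue at 620 nm. IC50 came from a 4-parameter logistic fit after normalising to unstimulated and stimulated DMSO controls.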

Where two headings read alike, the source gives them in different places.

T1 sequence (P01375 77-233 limits assumed): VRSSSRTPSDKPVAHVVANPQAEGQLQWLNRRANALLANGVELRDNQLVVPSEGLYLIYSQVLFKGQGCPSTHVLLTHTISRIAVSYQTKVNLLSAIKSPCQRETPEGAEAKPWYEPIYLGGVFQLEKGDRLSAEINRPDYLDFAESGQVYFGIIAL

For orientation: IC50 means the concentration needed to halve the response being measured. As to `[2H]C([2H])([2H])N1C(=O)c2cccc(OC(F)F)c2[C@H]2C[C@@H]1c1nc3c(F)cc(C#CC4CC4)cc3n12` [Example 175, (7R,14R)-11-(cyclopropylethynyl)-1-(difluoromethoxy)-9-fluoro-6-(methyl-d3)-6,7-dihydro-7,14-methanobenzo[f]benzo[4,5]imidazo[1,2-a][1,4]diazocin-5(14H)-one], for the setting “read-out: IC50 value”, the IC50 was less than 100 nM. Same read-out and setting: the figure for `[2H]C([2H])([2H])N1C(=O)c2cccc(OC(F)F)c2[C@H]2C[C@@H]1c1nc3ccc(C#CC4(C)CCN(C(=O)C5(C)CC5)C4)cc3n12` (stereo partly drawn) [Example 182, (7R,14R)-1-(difluoromethoxy)-6-(methyl-d3)-11-((3-methyl-1-(1-methylcyclopropane-1-carbonyl)pyrrolidin-3-yl)ethynyl)-6,7-dihydro-7,14-methanobenzo[f]benzo[4,5]imidazo[1,2-a][1,4]diazocin-5(14H)-one] is 100 to 1000 nM; for `[2H]C([2H])([2H])N1C(=O)c2cccc(OC(F)F)c2[C@H]2C[C@@H]1c1nc3ccc(C#CC(=O)NC(C)C)cc3n12` [Example 95, 3-((7R,14R)-1-(difluoromethoxy)-6-(methyl-d3)-5-oxo-5,6,7,14-tetrahydro-7,14-methanobenzo[f]benzo[4,5]imidazo[1,2-a][1,4]diazocin-11-yl)-N-isopropylpropiolamide] it is less than 100 nM. Still for that read-out and setting: the figure for `[2H]C([2H])([2H])N1C(=O)c2cccc(OC(F)F)c2[C@H]2C[C@@H]1c1nc3ccc(C#CCCN4CC[C@@H](F)C4)cc3n12` [Example 227, (7R,14R)-1-(difluoromethoxy)-11-(4-((R)-3-fluoropyrrolidin-1-yl)but-1-yn-1-yl)-6-(methyl-d3)-6,7-dihydro-7,14-methanobenzo[f]benzo[4,5]imidazo[1,2-a][1,4]diazocin-5(14H)-one] is less than 100 nM. `[2H]C([2H])([2H])N1C(=O)c2cccc(OC(F)F)c2[C@H]2C[C@@H]1c1nc3ccc(C#CCNC4COC4)cc3n12` [Example 242, (7R,14R)-1-(difluoromethoxy)-6-(methyl-d3)-11-(3-(oxetan-3-ylamino)prop-1-yn-1-yl)-6,7-dihydro-7,14-methanobenzo[f]benzo[4,5]imidazo[1,2-a][1,4]diazocin-5(14H)-one]: the half-inhibitory concentration (IC50) (IC50 value) was less than 100 nM. Regarding `[2H]C([2H])([2H])N1C(=O)c2cccc(OC(F)F)c2[C@H]2C[C@@H]1c1nc3ccc(C#C)cc3n12` [Example 44, (7R,14R)-1-(difluoromethoxy)-11-ethynyl-6-(methyl-d3)-6,7-dihydro-7,14-methanobenzo[f]benzo[4,5]imidazo[1,2-a][1,4]diazocin-5(14H)-one], the IC50 (read-out: IC50 value) was less than 100 nM.

Turning to `CCN1C(=O)c2cccc(OC(F)F)c2[C@H]2C[C@@H]1c1nc3ccc(C#Cc4cnn(C)c4)cc3n12` [Example 7, (1R,11R)-18-(difluoromethoxy)-12-ethyl-5-[2-(1-methylpyrazol-4-yl)ethynyl]-2,9,12-triazapentacyclo[9.8.1.0^{2,10}.0^{3,8}.0^{14,19}]icosa-3(8),4,6,9,14(19),15,17-heptaen-13-one], under “read-out: IC50 value”, the IC50 is less than 100 nM. The same measure, in the same setting: the figure for `[2H]C([2H])([2H])N1C(=O)c2cccc(OC(F)F)c2[C@H]2C[C@@H]1c1nc3ccc(C#CC(C)CCO)cc3n12` (single isomer, unassigned) [Example 240, (7R,14R)-1-(difluoromethoxy)-11-((R or S)-5-hydroxy-3-methylpent-1-yn-1-yl)-6-(methyl-d3)-6,7-dihydro-7,14-methanobenzo[f]benzo[4,5]imidazo[1,2-a][1,4]diazocin-5(14H)-one] is less than 100 nM; for `[2H]C([2H])([2H])N1C(=O)c2cccc(OC(F)F)c2[C@H]2C[C@@H]1c1nc3ccc(C#Cc4cnc(P(C)(C)=O)nc4)cc3n12` [Example 100, (7R,14R)-1-(difluoromethoxy)-11-((2-(dimethylphosphoryl)pyrimidin-5-yl)ethynyl)-6-(methyl-d3)-6,7-dihydro-7,14-methanobenzo[f]benzo[4,5]imidazo[1,2-a][1,4]diazocin-5(14H)-one] it is less than 100 nM; for `Cn1nncc1C#Cc1ccc2nc3n(c2c1)[C@@H]1C[C@H]3NC(=O)c2cccc(OC(F)F)c21` [Example 19, (7R,14R)-1-(difluoromethoxy)-11-((1-methyl-1H-1,2,3-triazol-5-yl)ethynyl)-6,7-dihydro-7,14-methanobenzo[f]benzo[4,5]imidazo[1,2-a][1,4]diazocin-5(14H)-one] it is less than 100 nM. Same read-out and setting: the figure for `[2H]C([2H])([2H])N1C(=O)c2cccc(OC(F)F)c2[C@H]2C[C@@H]1c1nc3ccc(C#CC4CCCN(C)C4)cc3n12` (stereo partly drawn) [Example 63, (7R,14R)-1-(difluoromethoxy)-6-(methyl-d3)-11-((1-methylpiperidin-3-yl)ethynyl)-6,7-dihydro-7,14-methanobenzo[f]benzo[4,5]imidazo[1,2-a][1,4]diazocin-5(14H)-one] is less than 100 nM; for `[2H]C([2H])([2H])N1C(=O)c2cccc(OC(F)F)c2[C@H]2C[C@@H]1c1nc3ccc(C#CCCN4CC(F)C4)cc3n12` [Example 228, (7R,14R)-1-(difluoromethoxy)-11-(4-(3-fluoroazetidin-1-yl)but-1-yn-1-yl)-6-(methyl-d3)-6,7-dihydro-7,14-methanobenzo[f]benzo[4,5]imidazo[1,2-a][1,4]diazocin-5(14H)-one] it is less than 100 nM.

Under “IC50 value”, `[2H]C([2H])([2H])N1C(=O)c2cccc(OC(F)F)c2[C@H]2C[C@@H]1c1nc3ccc(C#CC4CN(CC(F)F)C4)cc3n12` [Example 198, (7R,14R)-11-((1-(2,2-difluoroethyl)azetidin-3-yl)ethynyl)-1-(difluoromethoxy)-6-(methyl-d3)-6,7-dihydro-7,14-methanobenzo[f]benzo[4,5]imidazo[1,2-a][1,4]diazocin-5(14H)-one] gave an IC50 of 10000 to 30000 nM. Turning to `[2H]C([2H])([2H])N1C(=O)c2cccc(OC(F)F)c2[C@H]2C[C@@H]1c1nc3ccc(C#CC)c(F)c3n12` [Example 170, (7R,14R)-1-(difluoromethoxy)-12-fluoro-6-(methyl-d3)-11-(prop-1-yn-1-yl)-6,7-dihydro-7,14-methanobenzo[f]benzo[4,5]imidazo[1,2-a][1,4]diazocin-5(14H)-one], the IC50 (read-out: IC50 value) is less than 100 nM.

As to `[2H]C([2H])([2H])N1C(=O)c2cccc(OC(F)F)c2[C@H]2C[C@@H]1c1nc3ccc(C#CC4CCN(C(C)=O)CC4)cc3n12` [Example 173, (7R,14R)-11-((1-acetylpiperidin-4-yl)ethynyl)-1-(difluoromethoxy)-6-(methyl-d3)-6,7-dihydro-7,14-methanobenzo[f]benzo[4,5]imidazo[1,2-a][1,4]diazocin-5(14H)-one], the IC50 (read-out: IC50 value) was less than 100 nM. Same read-out and setting: the figure for `CN1C(=O)c2cccc(OC(F)F)c2[C@H]2C[C@@H]1c1nc3ccc(C#Cc4cnn(CCO)c4)cc3n12` [Example 5, (1R,11R)-18-(difluoromethoxy)-5-{2-[1-(2-hydroxyethyl)pyrazol-4-yl]ethynyl}-12-methyl-2,9,12-triazapentacyclo[9.8.1.0^{2,10}.0^{3,8}.0^{14,19}]icosa-3(8),4,6,9,14(19),15,17-heptaen-13-one] is less than 100 nM; for `[2H]C([2H])([2H])N1C(=O)c2cccc(OC(F)F)c2[C@H]2C[C@@H]1c1nc3ccc(C#CC(C)CCO)cc3n12` (single isomer, unassigned) [Example 239, (7R,14R)-1-(difluoromethoxy)-11-((S or R)-5-hydroxy-3-methylpent-1-yn-1-yl)-6-(methyl-d3)-6,7-dihydro-7,14-methanobenzo[f]benzo[4,5]imidazo[1,2-a][1,4]diazocin-5(14H)-one] it is less than 100 nM. For `[2H]C([2H])([2H])N1C(=O)c2cccc(OC(F)F)c2[C@H]2C[C@@H]1c1nc3ccc(C#Cc4cnc(C)cn4)cc3n12` [Example 34, (7R,14R)-1-(difluoromethoxy)-6-(methyl-d3)-11-((5-methylpyrazin-2-yl)ethynyl)-6,7-dihydro-7,14-methanobenzo[f]benzo[4,5]imidazo[1,2-a][1,4]diazocin-5(14H)-one], the half-inhibitory concentration (IC50) (read-out: IC50 value) was less than 100 nM. The same measure, in the same setting: in the case of `[2H]C([2H])([2H])N1C(=O)c2cccc(OC(F)F)c2[C@H]2C[C@@H]1c1nc3ccc(C#CCCCN4CCOCC4)cc3n12` [Example 114, (7R,14R)-1-(difluoromethoxy)-6-(methyl-d3)-11-(5-morpholinopent-1-yn-1-yl)-6,7-dihydro-7,14-methanobenzo[f]benzo[4,5]imidazo[1,2-a][1,4]diazocin-5(14H)-one] it was less than 100 nM. With `[2H]C([2H])([2H])N1C(=O)c2cccc(OC(F)F)c2[C@H]2C[C@@H]1c1nc3ccc(C#CC4CCCO4)cc3n12` (stereo partly drawn) [Example 53, (7R,14R)-1-(difluoromethoxy)-6-(methyl-d3)-11-((tetrahydrofuran-2-yl)ethynyl)-6,7-dihydro-7,14-methanobenzo[f]benzo[4,5]imidazo[1,2-a][1,4]diazocin-5(14H)-one], where the note is “read-out: IC50 value”, the IC50 was less than 100 nM. On the same count and under the same terms, in the case of `[2H]C([2H])([2H])N1C(=O)c2cccc(OC(F)F)c2[C@H]2C[C@@H]1c1nc3ccc(C#CC4COC4)cc3n12` [Example 80, (7R,14R)-1-(difluoromethoxy)-6-(methyl-d3)-11-(oxetan-3-ylethynyl)-6,7-dihydro-7,14-methanobenzo[f]benzo[4,5]imidazo[1,2-a][1,4]diazocin-5(14H)-one] it was less than 100 nM. With `[2H]C([2H])([2H])N1C(=O)c2cccc(OC(F)F)c2[C@H]2C[C@@H]1c1nc3ccc(C#Cc4cnn(C)c4)cc3n12` [Example 8, (7R,14R)-1-(difluoromethoxy)-6-(methyl-d3)-11-((1-methyl-1H-pyrazol-4-yl)ethynyl)-6,7-dihydro-7,14-methanobenzo[f]benzo[4,5]imidazo[1,2-a][1,4]diazocin-5(14H)-one], the half-maximal inhibitory concentration (IC50) (read-out: IC50 value) is less than 100 nM.
